Laboratory results: the METLIN SMRT retention time set (Domingo-Almenara et al. 2019)

Test: gradient 5% acetonitrile 3 min, to 50% in 2 min, to 85% in 15 min, held 3 min, 100 µL/min
Details: column: Zorbax Extend-C18 2.1 x 50 mm; eluents: water / acetonitrile, 0.1% formic acid
Procedure, shortened: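 Pure standards were analyzed in mixtures of ~100 molecules using HPLC coupled to a quadrupole time-of-flight mass spectrometer, in both positive and negative ionization mode. Separation used a Zorbax Extend-C18 column (2.1 × 50 mm, 1.8 μm) at 100 μL/min, with water and acetonitrile each containing 0.1% formic acid. Dead and dwell volumes were 40 μL and 900 μL, and data were collected over 3 months. Retention time was read from computationally picked adduct peaks, each inspected manually.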

Row | SMILES | RP-LC retention time [s]
1 | CCn1nc(C)c2ccnc(N3CCC(C(=O)N4CCN(c5cccc(OC)c5)CC4)CC3)c21 | 712
2 | COc1ccc(-c2nnc(-c3ccc(C)c(S(=O)(=O)N(C)CC(=O)O)c3)o2)cc1OC | 748
3 | CC(=O)Nc1ccc(NC(=O)C2CCCN(S(=O)(=O)c3cc(-c4noc(C)n4)cs3)C2)cc1 (centres undefined) | 744
4 | O=C(C1CC1)N1CCc2sc(S(=O)(=O)Nc3cccc(Cl)c3F)cc2C1 | 870
5 | Cc1nc(-c2csc(S(=O)(=O)N3CCC(C(=O)NC4CCCCCCC4)CC3)c2)no1 | 995
6 | CC(C)CN1C(=O)c2ccccc2C(C(=O)NCCCN2CCCC2=O)C1c1cccs1 (centres undefined) | 740
7 | O=C(CCn1c(N2CCCC2)nc2ccsc2c1=O)N1CCN(c2ccccc2)CC1 | 814
8 | CC(C)c1ccc(NC(=O)CN2C(=O)C3CCCCN3c3ccc(S(=O)(=O)N(C)C)cc32)cc1 (centres undefined) | 955
9 | CCOc1ccccc1NC(=O)N1CC(n2ccnc2)C1 | 594
10 | CC(C)NC(=O)N1CC[C@H](n2c(=O)n(C)c3cccnc32)C1 | 632
11 | O=C(Cc1ccsc1)N1CCC(n2c(-c3ccoc3)nc3cccnc32)C1 (centres undefined) | 811
12 | COc1ccc(NS(=O)(=O)c2cc3n(c2)CCN(CC(C)C)C3=O)cc1 | 745
13 | Cc1c(Cl)cccc1NC(=O)/C=C/c1ccccc1 | 947
14 | Cc1cc(N2CCN(c3ccccn3)CC2)n2nc(C(F)(F)F)c(-c3ccccc3Cl)c2n1 | 833
15 | CC(C)c1ccc(CN2CC(c3nc(CCN(C)S(C)(=O)=O)no3)C2)cc1 | 664
16 | COc1ccc(CN2CCNCC2)c(OC)c1OC | 578
17 | Cc1cnn(CCC(=O)N2CCCCCCNC(=O)[C@@H]3CCCC[C@@H]32)c1 | 728
18 | CC1Oc2ccc(S(=O)(=O)N3CCC(C(=O)NCc4ccco4)CC3)cc2NC1=O (centres undefined) | 722
19 | CN(CCCNC(=O)c1sc2ncccc2c1-n1cccc1)Cc1ccccc1 | 662
20 | CC(C)c1ccc(NC(=O)C(=O)NC2CC(C)(C)NC(C)(C)C2)cc1 | 712

Row | SMILES | RP-LC retention time [s]
21 | Cc1cc(C)cc(C(=O)N2CC=C(C(=O)NC3CC3)CC2)c1 | 755
22 | CCOC(=O)c1oc2ccccc2c1NC(=O)C1CCN(S(C)(=O)=O)CC1 | 762
23 | Cc1csc(-c2cc(S(=O)(=O)NCc3ccc(C(C)C)cc3)cn2CC(=O)N2CCCC2)n1 | 1030
24 | Cc1ccc(Nc2c(-c3ccc(C)cc3)nc3ccc(C)cn23)cc1 | 797
25 | O=C(c1ccc2c(c1)CCCN2S(=O)(=O)c1ccccc1)N1CCCC1 | 852
26 | O=C1CCCc2cc(S(=O)(=O)N3CCC(C(=O)NC4CCCc5ccccc54)CC3)ccc2N1 (centres undefined) | 795
27 | O=C(Cc1cccs1)Nc1nnc(SCC(=O)N2CCCc3ccccc32)s1 | 805
28 | O=C([C@@H]1C[C@H](F)CN1S(=O)(=O)c1ccc(F)cc1F)N1CCOCC1 | 692
29 | CCOC(=O)c1c(S(=O)(=O)N2CCC(C(=O)NCc3ccccc3)CC2)c(C)n(C)c1C | 795
30 | CN1C(=O)C(CC(=O)NCc2nc3ccccc3n2C)=C2CCCCC21 (centres undefined) | 600
31 | Cc1ccc(CNC(=O)C2CCCN(C(=O)C3Sc4ccccc4NC3=O)C2)cc1 (centres undefined) | 782
32 | CCc1cccc(NC(=O)c2cc3n(n2)CC(C)(C(=O)NC2CCCC2)N(CC)C3=O)c1 (centres undefined) | 605
33 | Cc1ccc(NC(=O)C2CCCN(C(=O)C3Sc4ccccc4NC3=O)C2)c(C)c1 (centres undefined) | 762
34 | CC(C)NC(=O)N1CC(c2nc(-c3ccc(F)cc3)no2)C2(CCOCC2)C1 (centres undefined) | 815
35 | COc1cc(CNS(=O)(=O)c2cn(C(C)C)c3ncccc23)cc(OC)c1 | 859
36 | CN(C)c1ccc(CNC(=O)c2cc3c(=O)n(C)ccc3n2C)cc1 | 579
37 | O=S(=O)(Cc1ccccc1)N1CCN(Cc2cccc(F)c2)C2(CCOCC2)C1 | 745
38 | CC(C)c1nnc2n1CCN(C(=O)CCC1CCCC1)C2 | 714
39 | C=CCNC(=O)c1cnn(-c2ccc(-c3nc(C)no3)cn2)c1C | 750
40 | Nc1cc(C(F)(F)F)c(-c2cc(N3CCOCC3)nc(N3CCOCC3)n2)cn1 | 650

Row | SMILES | RP-LC retention time [s]
41 | COCCCNC(=O)C1CCN(c2ncccc2S(=O)(=O)N2CCOCC2)CC1 | 613
42 | O=C(Cn1cnc2nc3c(cc2c1=O)CCCC3)Nc1cccc(F)c1 | 721
43 | Cc1nc(-c2cc(S(=O)(=O)N3CCCCC3)c(C)n2C)sc1C | 1140
44 | COC(=O)c1nnn(-c2cc(Cl)ccc2OC)c1C(=O)OC | 898
45 | COCCNCc1ccc(-c2cccc(C(F)(F)F)c2)o1 | 662
46 | CC1(C)CC2CC(C)(CN2c2ncnc(N)c2[N+](=O)[O-])C1 (centres undefined) | 867
47 | CCCN(CC1CCOC1)C(=O)Nc1cccc(SC)c1 (centres undefined) | 831
48 | c1ccc(N2CCN(Cc3cccn3-c3nnc(N4CCCCC4)s3)CC2)nc1 | 627
49 | CCc1nnc2sc(-c3cc(C)nc4ccc(Br)cc34)nn12 | 892
50 | Cc1ccc(N2C(=O)C3N=NN(Cc4nc(-c5cccc(Br)c5)no4)C3C2=O)cc1C (centres undefined) | 1120
51 | COc1cc(-c2noc(Cc3nnc(-c4cc(C)cc(C)c4)o3)n2)cc(OC)c1OC | 1050
52 | Cc1ccccc1CC(=O)Nc1cc(-c2cccs2)no1 | 969
53 | CCCNC(=O)N1CC(c2nc(C)no2)C2(CCOCC2)C1 (centres undefined) | 634
54 | CSc1nc2ccc(NS(=O)(=O)c3ccc(Br)s3)cc2s1 | 994
55 | CCNC(=O)CC1=C2CCCCC2N(C)C1=O (centres undefined) | 607
56 | CC1CCN(C(=O)c2cc3c(s2)CCC(C(=O)N2CCN(C)CC2)C3)CC1 (centres undefined) | 575
57 | Cc1cccc(NC(=O)C2CCN(S(=O)(=O)c3cc(C(=O)N4CCOCC4)cs3)CC2)c1C | 760
58 | O=C(c1ccccc1)N1CCC(C(=O)N2CCc3ccccc32)CC1 | 750

Continued, values first:

Row | RP-LC retention time [s] | SMILES
59 | 878 | CC1(C)N=C(N)N=C(N)N1c1ccc(CCCCc2ccc(Cl)cc2Cl)cc1
60 | 711 | COc1ccc(N2CCN(C(=O)C3CCCN(c4ccc(-c5ccccc5)nn4)C3)CC2)cc1 (centres undefined)
61 | 1090 | CCOc1ccc(-c2noc(Cc3nnc(-c4cccc(F)c4)o3)n2)cc1
62 | 923 | CC(C)(C)c1ccc(C(=O)Nc2cnc(N3CCOCC3)nc2)cc1
63 | 1010 | CCOC(=O)c1c(Cc2ccc(Cl)cc2)c[nH]c1C
64 | 825 | O=C(Cn1cccc1-c1nnc(C2CC2)o1)NCc1ccc(Cl)cc1
65 | 652 | CCCOc1ccc2nc(NC(=O)OC)[nH]c2c1
66 | 751 | Nc1nccc(Oc2ccc(NC(=O)c3c[nH]cc(-c4ccc(F)cc4)c3=O)cc2F)c1Cl
67 | 994 | Cc1ccc(Nc2c(-c3c(F)cccc3Cl)nc3ccc(Cl)cn23)cc1
68 | 915 | Cc1ccc(CNC(=O)Cc2nnc(-c3ccc4ncccc4c3)o2)cc1C
69 | 1030 | Cc1ccc(-c2nc(C3CC(=O)N(c4ccc(F)cc4)C3)no2)cc1 (centres undefined)
70 | 682 | CCn1ccc2oc(C)c(C(=O)N3CCN(c4ccc(OC)cc4)CC3)c2c1=O
71 | 787 | COc1ccc(-c2nc(C3CC(=O)N(c4ccc(OC)c(OC)c4)C3)no2)cc1OC (centres undefined)
72 | 616 | CCOC(=O)c1noc2ncnc(NC3CCN(Cc4ccccc4)CC3)c12
73 | 958 | Cc1ccc(CNC(=O)CSc2nccc(N3CCN(c4cc(C)ccc4C)CC3)n2)cc1
74 | 624 | CCOc1ccc(NC(=O)N2CCN(c3cc(C)nc(N4CCOCC4)n3)CC2)cc1

Row | RP-LC retention time [s] | SMILES
75 | 591 | Cc1ccn2cc(C(=O)NCc3ccc(N4CCOCC4)cc3)nc2c1
76 | 774 | CC1(C(=O)Nc2ccc(Cl)cc2F)Oc2cccnc2NC1=O (centres undefined)
77 | 552 | CCOc1ccc(C(=O)Nc2cccnc2)nn1
78 | 873 | Cc1ccc(C(=O)Nc2nc(-c3ccc4c(c3)NC(=O)CO4)cs2)cc1
79 | 923 | COc1ccc(-c2noc(-c3ccc(N4CCN(c5ncccn5)CC4)nn3)n2)cc1
80 | 1380 | CCc1ccc(CNC(=O)C2CCCN(c3nc4c(s3)c(C)nn4-c3ccc(Cl)cc3)C2)cc1 (centres undefined)
81 | 982 | Cc1ccc(NC(=O)Cn2cnc3c(sc4nc(-c5ccccc5)ccc43)c2=O)c(F)c1
82 | 1100 | COc1ccc(CN2C=C(C(=O)OCc3nc(-c4ccccc4)no3)C(C)=NS2(=O)=O)cc1
83 | 719 | CCCCN1CC(=O)N(c2ccc(OC)cc2)[C@@H]2CS(=O)(=O)C[C@@H]21
84 | 909 | CCCOc1ccc(C(=O)Nc2nnc(C3CC(=O)N(c4ccc(Cl)cc4)C3)o2)cc1 (centres undefined)
85 | 681 | COc1ccc(-c2ccc(=O)n(CCNC(=O)NC3CCCCC3)n2)cc1
86 | 688 | Cc1nc(-c2cccc(NC(=O)c3coc(NC(=O)c4ccco4)n3)c2)cs1
87 | 907 | Cc1ccc(CN2N=C(C(=O)N3CCOCC3)S(=O)(=O)c3ccc(C)cc32)cc1
88 | 974 | Cc1ccc(C(=O)N2CCc3cc(-c4ccno4)ccc32)cc1
89 | 726 | Cc1cc(C(=O)NCCCN2CCN(c3cc(Cl)ccc3C)CC2)n(-c2ccccc2)n1
